Experimental findings from ChEMBL document CHEMBL5465560, “Selectivity Literature for EUbOPEN Chemogenomic Library” (2024) are described below.

For experiment [1], the target named is Tyrosine-protein kinase HCK (Homo sapiens) (UniProt P08631). As to the kind of experiment: Selectivity interaction (SelectScreen profiling (Invitrogen)) EUB0000607a HCK. Conditions: at 2 µM.
Experiment [2] deals with Mast/stem cell growth factor receptor Kit (Homo sapiens), P10721 [V559D,V654A]. Description: (§1) Selectivity interaction (KinomeScan (DiscoverX)) EUB0000607a KIT. As to conditions: at 10 µM.
Sequence of Mast/stem cell growth factor receptor Kit (Homo sapiens), P10721 [V559D,V654A] (P10721 whole entry V559D/V654A): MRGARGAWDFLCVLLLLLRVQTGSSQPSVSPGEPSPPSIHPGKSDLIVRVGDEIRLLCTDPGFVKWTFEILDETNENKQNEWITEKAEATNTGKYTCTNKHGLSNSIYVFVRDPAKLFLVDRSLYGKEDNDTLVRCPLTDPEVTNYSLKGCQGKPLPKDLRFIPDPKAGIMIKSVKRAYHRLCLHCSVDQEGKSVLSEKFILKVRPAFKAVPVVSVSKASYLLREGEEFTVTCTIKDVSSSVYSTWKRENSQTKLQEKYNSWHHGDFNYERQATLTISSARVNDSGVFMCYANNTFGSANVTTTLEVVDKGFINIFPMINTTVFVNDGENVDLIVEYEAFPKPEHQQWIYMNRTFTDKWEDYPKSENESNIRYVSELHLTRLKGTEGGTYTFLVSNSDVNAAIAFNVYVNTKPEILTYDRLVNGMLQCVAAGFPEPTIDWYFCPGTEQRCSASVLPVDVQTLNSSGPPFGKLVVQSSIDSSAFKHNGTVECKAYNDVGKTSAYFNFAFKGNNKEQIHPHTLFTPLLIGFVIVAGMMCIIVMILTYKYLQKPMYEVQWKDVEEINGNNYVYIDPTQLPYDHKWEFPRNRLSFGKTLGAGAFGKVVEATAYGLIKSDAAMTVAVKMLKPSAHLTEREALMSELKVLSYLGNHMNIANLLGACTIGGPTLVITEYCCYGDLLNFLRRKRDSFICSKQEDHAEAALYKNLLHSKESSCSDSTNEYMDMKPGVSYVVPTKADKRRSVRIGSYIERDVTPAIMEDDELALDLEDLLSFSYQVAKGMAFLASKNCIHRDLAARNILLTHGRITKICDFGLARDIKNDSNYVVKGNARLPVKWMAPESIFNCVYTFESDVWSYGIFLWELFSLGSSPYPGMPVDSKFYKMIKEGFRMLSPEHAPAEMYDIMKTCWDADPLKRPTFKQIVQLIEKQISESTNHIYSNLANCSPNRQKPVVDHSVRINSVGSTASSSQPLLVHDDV
Experiment [3] deals with Mast/stem cell growth factor receptor Kit (Homo sapiens), P10721 [D816V]. The experiment is described as §1. Conditions: at 10 µM.
Experiment [4] has as its system Mast/stem cell growth factor receptor Kit (Homo sapiens), P10721 [V559D]. The description is as §1. Conditions: at 10 µM.
The target of experiment [5] is Mast/stem cell growth factor receptor Kit (Homo sapiens, UniProt P10721). Described as §1. As to conditions: at 10 µM.
For experiment [6], the system named is Mast/stem cell growth factor receptor Kit (Homo sapiens), P10721 [A829P]. The description is as §1. As to conditions: at 10 µM.
Experiment [7] deals with Mast/stem cell growth factor receptor Kit (Homo sapiens), P10721 [V559D,T670I]. The description is as §1. Conditions: at 10 µM.
Experiment [8] addresses T1, Receptor-interacting serine/threonine-protein kinase 4 (Homo sapiens) (UniProt P57078).
T1 sequence (whole entry): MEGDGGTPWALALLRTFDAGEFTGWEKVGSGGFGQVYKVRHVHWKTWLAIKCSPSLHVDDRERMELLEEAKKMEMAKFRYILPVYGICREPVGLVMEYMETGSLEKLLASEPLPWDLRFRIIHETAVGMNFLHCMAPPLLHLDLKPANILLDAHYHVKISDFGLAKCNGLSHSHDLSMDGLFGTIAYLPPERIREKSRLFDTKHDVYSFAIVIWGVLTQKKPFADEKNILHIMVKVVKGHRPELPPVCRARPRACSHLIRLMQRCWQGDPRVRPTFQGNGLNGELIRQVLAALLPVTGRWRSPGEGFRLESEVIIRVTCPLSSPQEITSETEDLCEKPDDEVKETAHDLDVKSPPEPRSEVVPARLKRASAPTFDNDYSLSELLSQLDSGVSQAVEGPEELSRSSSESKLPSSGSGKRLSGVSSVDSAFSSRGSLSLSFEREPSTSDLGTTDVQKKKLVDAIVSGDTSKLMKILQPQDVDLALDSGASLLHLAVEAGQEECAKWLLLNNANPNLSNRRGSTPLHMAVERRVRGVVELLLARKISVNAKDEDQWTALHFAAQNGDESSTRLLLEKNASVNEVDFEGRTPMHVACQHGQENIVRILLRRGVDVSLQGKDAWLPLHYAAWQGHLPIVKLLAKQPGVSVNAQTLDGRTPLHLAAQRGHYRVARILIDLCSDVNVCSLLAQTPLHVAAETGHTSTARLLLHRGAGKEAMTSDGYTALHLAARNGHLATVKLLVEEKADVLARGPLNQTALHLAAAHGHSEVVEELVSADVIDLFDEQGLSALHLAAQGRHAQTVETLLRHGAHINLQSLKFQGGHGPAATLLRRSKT
As to the kind of experiment: Selectivity interaction (KinomeScan (DiscoverX)) EUB0000666a RIPK4. As to conditions: at 10 µM.

In experiment [9] the test system is Proto-oncogene tyrosine-protein kinase receptor Ret (Homo sapiens), P07949 [V804M]. Description: (§2) Selectivity interaction (KinomeScan (DiscoverX)) EUB0000229b RET. Conditions: at 1 µM.
Sequence of Proto-oncogene tyrosine-protein kinase receptor Ret (Homo sapiens), P07949 [V804M] (P07949 whole entry V804M): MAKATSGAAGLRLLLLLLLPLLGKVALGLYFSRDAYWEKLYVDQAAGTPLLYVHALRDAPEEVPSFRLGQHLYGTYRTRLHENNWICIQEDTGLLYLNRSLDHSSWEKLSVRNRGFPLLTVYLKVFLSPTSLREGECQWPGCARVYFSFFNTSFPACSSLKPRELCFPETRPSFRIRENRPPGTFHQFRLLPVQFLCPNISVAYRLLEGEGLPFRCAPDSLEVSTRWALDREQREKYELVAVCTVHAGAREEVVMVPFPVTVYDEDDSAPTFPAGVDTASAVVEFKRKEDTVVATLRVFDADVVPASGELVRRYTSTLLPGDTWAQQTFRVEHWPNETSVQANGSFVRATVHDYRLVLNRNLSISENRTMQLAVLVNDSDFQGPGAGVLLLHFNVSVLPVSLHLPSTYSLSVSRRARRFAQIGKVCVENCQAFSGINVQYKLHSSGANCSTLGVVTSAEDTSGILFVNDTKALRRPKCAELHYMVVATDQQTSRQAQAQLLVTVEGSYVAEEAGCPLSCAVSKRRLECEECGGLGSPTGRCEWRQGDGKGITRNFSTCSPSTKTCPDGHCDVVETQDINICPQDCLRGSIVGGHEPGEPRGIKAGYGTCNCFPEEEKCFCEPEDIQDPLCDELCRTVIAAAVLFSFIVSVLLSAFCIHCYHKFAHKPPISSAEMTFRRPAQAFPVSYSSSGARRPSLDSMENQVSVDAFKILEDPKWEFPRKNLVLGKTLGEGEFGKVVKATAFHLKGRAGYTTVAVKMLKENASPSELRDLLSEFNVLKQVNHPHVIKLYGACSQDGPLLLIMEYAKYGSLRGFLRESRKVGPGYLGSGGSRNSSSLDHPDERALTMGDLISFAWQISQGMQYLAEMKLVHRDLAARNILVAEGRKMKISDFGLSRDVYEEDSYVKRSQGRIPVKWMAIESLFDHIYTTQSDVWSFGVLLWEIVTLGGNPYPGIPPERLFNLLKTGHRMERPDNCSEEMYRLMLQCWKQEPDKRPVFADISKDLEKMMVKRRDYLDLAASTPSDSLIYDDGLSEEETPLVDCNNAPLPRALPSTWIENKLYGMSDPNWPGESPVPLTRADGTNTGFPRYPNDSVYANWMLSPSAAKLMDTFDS
Experiment [10] deals with Proto-oncogene tyrosine-protein kinase receptor Ret (Homo sapiens, UniProt P07949). The description is as §2. As to conditions: at 10 µM.
The subject of experiment [11] is Proto-oncogene tyrosine-protein kinase receptor Ret (Homo sapiens), P07949 [V804L]. The experiment is described as §2. As to conditions: at 1 µM.
For experiment [12], the system named is Proto-oncogene tyrosine-protein kinase receptor Ret (Homo sapiens), P07949 [M918T]. Described as §2. Conditions: at 1 µM.
The target in experiment [13] is Calcium/calmodulin-dependent protein kinase kinase 1 (Homo sapiens) (UniProt Q8N5S9). Description: Selectivity interaction (KinomeScan (DiscoverX)) EUB0001619a CAMKK1. As to conditions: at 1 µM.
The target of experiment [14] is Microtubule-associated serine/threonine-protein kinase 3 (Homo sapiens) (UniProt O60307). As to the kind of experiment: Selectivity interaction (ActivX KiNativ screen (ex vivo kinase selectivity in human PBMCs)) EUB0001619a MAST3. Conditions: PBMC, at 1 µM. In kind it is cell-based.
For experiment [15], the target named is T2, Mitogen-activated protein kinase kinase kinase 5 (Homo sapiens) (UniProt Q99683).
T2 sequence (whole entry): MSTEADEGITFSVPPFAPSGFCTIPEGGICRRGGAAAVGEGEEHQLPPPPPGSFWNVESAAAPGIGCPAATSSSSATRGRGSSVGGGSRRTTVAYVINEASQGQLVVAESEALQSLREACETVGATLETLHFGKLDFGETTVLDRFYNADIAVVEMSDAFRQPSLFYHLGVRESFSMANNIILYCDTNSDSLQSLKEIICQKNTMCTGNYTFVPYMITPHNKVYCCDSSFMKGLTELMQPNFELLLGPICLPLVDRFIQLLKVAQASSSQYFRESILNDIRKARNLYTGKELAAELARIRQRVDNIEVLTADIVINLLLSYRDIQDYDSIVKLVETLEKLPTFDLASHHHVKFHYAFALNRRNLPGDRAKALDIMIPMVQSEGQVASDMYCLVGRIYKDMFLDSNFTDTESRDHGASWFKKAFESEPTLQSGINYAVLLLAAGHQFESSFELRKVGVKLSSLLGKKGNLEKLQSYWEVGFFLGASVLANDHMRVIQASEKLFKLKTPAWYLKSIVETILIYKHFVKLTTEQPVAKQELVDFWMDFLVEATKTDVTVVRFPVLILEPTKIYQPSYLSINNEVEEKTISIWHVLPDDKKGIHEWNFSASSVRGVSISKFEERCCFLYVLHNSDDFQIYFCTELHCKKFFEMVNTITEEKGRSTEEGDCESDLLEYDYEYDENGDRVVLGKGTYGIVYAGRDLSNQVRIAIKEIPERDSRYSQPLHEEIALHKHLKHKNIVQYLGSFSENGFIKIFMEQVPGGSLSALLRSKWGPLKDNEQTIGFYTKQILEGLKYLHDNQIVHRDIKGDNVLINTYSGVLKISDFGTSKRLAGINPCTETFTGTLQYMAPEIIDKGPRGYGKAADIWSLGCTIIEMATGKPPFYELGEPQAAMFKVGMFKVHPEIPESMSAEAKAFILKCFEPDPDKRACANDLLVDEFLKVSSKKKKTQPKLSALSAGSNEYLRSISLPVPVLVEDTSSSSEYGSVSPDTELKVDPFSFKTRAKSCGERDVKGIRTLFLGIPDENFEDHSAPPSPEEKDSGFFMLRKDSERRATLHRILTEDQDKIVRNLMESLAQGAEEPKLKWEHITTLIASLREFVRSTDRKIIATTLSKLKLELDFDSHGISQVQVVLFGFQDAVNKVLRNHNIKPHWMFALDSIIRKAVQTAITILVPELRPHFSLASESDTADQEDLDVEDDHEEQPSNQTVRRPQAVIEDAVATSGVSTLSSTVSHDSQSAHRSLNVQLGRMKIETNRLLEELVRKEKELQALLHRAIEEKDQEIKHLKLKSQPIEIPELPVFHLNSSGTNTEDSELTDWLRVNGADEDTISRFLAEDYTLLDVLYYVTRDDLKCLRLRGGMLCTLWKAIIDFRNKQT
As to the kind of experiment: Selectivity interaction (KinomeScan (DiscoverX)) EUB0000045b MAP3K5.

Sequence of Mast/stem cell growth factor receptor Kit (Homo sapiens), P10721 [V559D] (P10721 whole entry V559D): as the sequence (P10721 whole entry V559D/V654A) above, with A654V counted along it
Sequence of Tyrosine-protein kinase HCK (Homo sapiens) (P08631 2-526 limits assumed): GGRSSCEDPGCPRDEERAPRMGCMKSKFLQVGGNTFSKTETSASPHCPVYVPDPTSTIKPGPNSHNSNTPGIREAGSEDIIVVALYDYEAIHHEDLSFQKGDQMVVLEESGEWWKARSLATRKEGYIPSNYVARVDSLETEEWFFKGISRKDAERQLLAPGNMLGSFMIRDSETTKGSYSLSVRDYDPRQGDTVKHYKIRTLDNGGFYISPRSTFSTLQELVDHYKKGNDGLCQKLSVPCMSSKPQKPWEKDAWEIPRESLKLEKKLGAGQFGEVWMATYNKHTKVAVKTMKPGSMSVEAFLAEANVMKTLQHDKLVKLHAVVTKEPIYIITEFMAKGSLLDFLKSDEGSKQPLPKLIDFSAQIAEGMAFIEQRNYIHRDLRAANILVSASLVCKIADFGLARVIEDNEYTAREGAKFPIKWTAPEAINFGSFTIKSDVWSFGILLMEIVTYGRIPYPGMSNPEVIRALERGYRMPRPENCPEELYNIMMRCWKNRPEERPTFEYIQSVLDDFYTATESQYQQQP
Sequence of Proto-oncogene tyrosine-protein kinase receptor Ret (Homo sapiens), P07949 [V804L] (P07949 whole entry V804L): as the sequence (P07949 whole entry V804M) above, with M804L counted along it

Take `CNC(=O)Nc1ccc(-c2nc(N3CC4CCC(C3)O4)c3cnn(C4CCC5(CC4)OCCO5)c3n2)cc1`: the % of inhibition in experiment [1] amounted to 5%. In addition, the % of control in [2] was found to be 100%; in experiment [3], 82%; in [4] it was 85%; in experiment [5], 91%; in [6], 89%; in experiment [7], 100%.
On to `O=C(NOC[C@H](O)CO)c1ccc(F)c(F)c1Nc1ccc(I)cc1F`, for which the % of control in [8] was determined as 100%.
Regarding `COc1cc(N(C)c2ccnc3ccc(C(F)(F)F)cc23)cc(OC)c1OC`, the % binding in [9] was 89%; in experiment [10] it was 97%; in experiment [11], 96%; in experiment [12] it was 100%.
On to `N#Cc1cccc(-c2c[nH]c3ncnc(N4CCOCC4)c23)c1`, for which the % of control in [13] was found to be 100%. The compound further showed a % of inhibition in [14] of 1%.
As to `C=CC(=O)Nc1cc(-n2c(=O)ccc3cnc4ccc(-c5ccc(NS(C)(=O)=O)cc5)cc4c32)ccc1C`, the % of control in [15] (at 1 µM) and in [15] (at 10 µM) was 100% each time.
